Tested on: Brine shrimp
Experiment: brine shrimp toxicity assay
Type: in vivo
Settings: concentrations up to 20 mg/mL
Method: General procedure for brine shrimp toxicity assays. Sample preparation. Stock solutions of 3 were prepared by dissolving 3 (50.0 mg) in 5.0 HPLC grade water (5.0 mL), (solution A) and 3 (2.50 g) in HPLC grade water (10.0 mL) (solution B). Stock solutions of DMSO were prepared by diluting DMSO (45 μL) with HPLC grade water (5.0 mL) (solution C) and DMSO (2.27 mL) with HPLC grade water (10.0 mL) (solution D).
In each case, 5 replicates were performed. Each replicate was performed in a 2 dram vial marked at the 4 and 5 mL volume points. To each vial was added artificial sea water (3 mL) followed by the appropriate volume of stock solution. For set 1 (1.0 mg/mL), solution A (0.500 mL) or solution C (0.500 mL) was added. For set 2 (5.0 mg/mL), solution B (0.100 mL) or solution D (0.100 mL) was added to each vial. For set 3 (20.0 mg/mL), solution B (0.400 mL) or solution D (0.400 mL) was added to each vial. For set 4 (50.0 mg/mL), solution B (1.00 mL) or solution D (1.00 mL) was added to each vial. […]
Brine shrimp eggs (San Francisco Bay Brand) were hatched in a commercial salt mixture (Instant Ocean). […] The shrimp were counted at t=24 h. Another drop of freshly prepared yeast solution (6 mg in 10 mL sea water) was added, the vials were maintained under illumination, and shrimp were counted at t=48 h. […]

CC1(C[S+]([O-])CC2(C)COC2)COC1 [compound 3, 3,3′-Sulfinylbis(methylene)bis(3-methyloxetane)]
mortality after 48 h: < 10%

Reference: patent publication US9546144B2, “Bifunctional compounds” (University of Pittsburgh—of the Commonwealth System of …, priority 2011, dated 2017)
